Assay results taken from patent US20170022258A1, “PEPTIDES FOR USE IN THE TREATMENT OF IL-1 RELATED DISEASES AND CONDITIONS” (C4M PHARMACEUTICALS PTY LTD., priority 2011, published 2017).
Non-standard residues stand in square brackets, D forms with d. Residues, ends and D or L forms follow the SMILES beside them.

Tested on: IL-1 stimulation of IL-8 in human skin fibroblasts
Test: Inhibition of IL-1 induced IL-8 in human fibroblasts
Assay type: cell-based
Conditions: inhibition of IL-1 stimulation of IL-8 in human skin fibroblasts; average of three measurements and standard error; read-out: Binding (IC50 nM)

CC(=O)N[C@H](CC(C)C)C(=O)N1CCC[C@@H]1C(=O)N[C@H](CC(C)C)C(=O)N[C@H](C)C(=O)N[C@H](Cc1ccc(O)cc1)C(=O)N1CCC[C@@H]1C(=O)N[C@H](CCC(N)=O)C(=O)N[C@H](Cc1c[nH]c2ccccc12)C(=O)N[C@H](Cc1ccc(O)cc1)C(=O)NCC(=O)N1CCC[C@@H]1C(=O)N[C@@H](C(=O)N[C@H](Cc1c[nH]c2ccccc12)C(=O)N[C@H](CCC(=O)O)C(=O)N[C@H](Cc1ccccc1)C(=O)O)[C@H](C)O [SEQ ID NO. 4, Ac-LPLAYPQWYGPTWEF] (Ac-[dL][dP][dL][dA][dY][dP][dQ][dW][dY]G[dP][dT][dW][dE][dF]-OH; C-terminus assumed)
IC50: 5.9 nM
